Experimental data: patent US20120323164A1, “PHOTODYNAMIC THERAPY WITH PHTHALOCYANINES AND RADICAL SOURCES” (Case Western Reserve University, priority 2011, published 2012)
Like-named read-outs stand apart in the source and are kept apart here. Each block holds one molecule with its values, some of them ahead of it.

Columns and labels:
[1] = for decomp (%) of Pc 4: Pc 4 in toluene ~9 μM, white light 1.2 kJ/s/m^2
Method: The beam intensity was checked before each measurement.
Solutions for the photodecomposition experiments were prepared as follows.

[2] = Qualitative solubility in organic solvents
[3] = Photodecomposition of phthalocyanines in toluene under white light, no added radical source; conditions: no added alkene; for decomp (%): toluene ~9 μM, white light 1.2 kJ/s/m^2
Method: The distance between the cuvette face and the lamp filament was 30 cm. Determination of the beam intensity at the cuvette face was made with a powermeter (Powermax, pm10, Coherent, Santa Clara, Calif.). The beam intensity was checked before each measurement.
Solutions for the photodecomposition experiments were prepared as follows. […] This assumption was justified on the basis that all of the silicon phthalocyanines studied contained simple, unsubstituted phthalocyanine rings. The extinction coefficients of the aluminum phthalocyanines were assumed to be 2.3×10^5, the extinction coefficient of AlPcOSi(CH3)2(CH2)3N(CH3)2, Pc 1.
The absorbance of the Q band of the solution, A, was determined with a spectrophotometer (Lambda 25, Perkin Elmer, Shelton, Conn.; fused silica cuvettes, 1.00 cm, 3.5 mL, Fisher Scientific). From A, ε, the cuvette path length, b, and Beer's law, the concentration of the solution, c, was determined. The solution was then diluted with toluene to a concentration of 9.2 μM. To verify that this was the concentration of the solution, its absorbance was measured again.
In a typical determination, the solution (3.00 mL) was placed in a cuvette (1.00 cm, 3.5 mL, Fisher Scientific, Pittsburgh, Pa.) and its absorbance was measured with the spectrometer (Lambda 25) before irradiation and at 2, 4, 6 and 8 h.
where A0 is the absorbance of the solution at time 0, and At is the absorbance at time t.

[4] = time 0 h, alkene 1:1000 mole ratio
[5] = time 2 h, alkene 1:1000 mole ratio
[6] = time 4 h, alkene 1:1000 mole ratio
[7] = time 6 h, alkene 1:1000 mole ratio
[8] = time 8 h, alkene 1:1000 mole ratio
[9] = time 2 h, radiation 86 kJ/mol × 10^−6
[10] = time 4 h, radiation 172 kJ/mol × 10^−6
[11] = time 6 h, radiation 258 kJ/mol × 10^−6
[12] = time 8 h, radiation 344 kJ/mol × 10^−6
[13] = time 0 h, alkene 1:100 mole ratio
[14] = time 2 h, alkene 1:100 mole ratio
[15] = time 4 h, alkene 1:100 mole ratio
[16] = time 6 h, alkene 1:100 mole ratio
[17] = time 8 h, alkene 1:100 mole ratio

decomp (%) of Pc 4 [1, 4]: 0%
decomp (%) of Pc 4 [1, 5]: 23%
decomp (%) of Pc 4 [1, 6]: 49%
decomp (%) of Pc 4 [1, 7]: 69%
decomp (%) of Pc 4 [1, 8]: 83%
Molecule: C1=C\CC/C=C\CC/1 [1,5-cyclooctadiene]

Molecule: CC(C)CCCC(C)CCCC(C)CCOc1cc2c(cc1OCCC(C)CCCC(C)CCCC(C)C)-c1nc-2nc2[nH]c(nc3nc(nc4[nH]c(n1)c1ccccc41)-c1ccccc1-3)c1ccccc21 (stereo not drawn) [Pc 272, H2Pc[2,3-O(C2H4CH(CH3)CH2)2C2H4CH(CH3)2]2]
solubility (in words) [2]: soluble in CH2Cl2 and toluene, and slightly soluble in dimethylformamide and hexanes

decomp (%) ([3]; time 0 h): 0%
decomp (%) [3, 9]: 0%
decomp (%) [3, 10]: 0%
decomp (%) [3, 11]: 0%
decomp (%) [3, 12]: 0%
Molecule: C=C[Si](C=C)(C=C)O[Si]1(O[Si](C=C)(C=C)C=C)n2c3c4ccccc4c2N=C2N=C(N=c4c5ccccc5c(n41)=NC1=NC(=N3)c3ccccc31)c1ccccc12 [Pc 279, SiPc[OSi(CH═CH2)3]2]
solubility (in words) [2]: soluble in CH2Cl2, dimethylformamide, pyridine and toluene, and insoluble in hexanes and methanol
photostability (in words) ([3]; white light, toluene): quite stable, remaining unchanged during 8 hours of irradiation

Molecule: CCCCC/C=C\C/C=C\CCCCCCCC(=O)O.CCCCC/C=C\C/C=C\CCCCCCCC(=O)O.CN(C)CCC[Si](C)(C)O[Si]1(O[Si](C)(C)CCCN(C)C)n2c3c4ccccc4c2N=C2N=C(N=c4c5ccccc5c(n41)=NC1=NC(=N3)c3ccccc31)c1ccccc12 [Pc 289, SiPc[OSi(CH3)2(CH2)3NH(CH3)2]2^2+ [OC(O)(CH2)6(CH2CH═CH)2(CH2)4CH3]2]
solubility (in words) [2]: soluble in ethanol, CH2Cl2 and dimethylformamide, moderately soluble in toluene, and insoluble in hexanes
decomp (%) ([3]; time 0 h): 0%
decomp (%) [3, 9]: 18%
decomp (%) [3, 10]: 19%
decomp (%) [3, 11]: 20%
decomp (%) [3, 12]: 21%

Molecule: CC/C=C\C/C=C\C/C=C\CCCCCCCC(=O)O.CC/C=C\C/C=C\C/C=C\CCCCCCCC(=O)O.CN(C)CCC[Si](C)(C)O[Si]1(O[Si](C)(C)CCCN(C)C)n2c3c4ccccc4c2N=C2N=C(N=c4c5ccccc5c(n41)=NC1=NC(=N3)c3ccccc31)c1ccccc12 [Pc 290, SiPc[OSi(CH3)2(CH2)3NH(CH3)2]2^2+ [OC(O)(CH2)6(CH2CH═CH)3CH2CH3]2]
solubility (in words) [2]: soluble in ethanol, CH2Cl2 and dimethylformamide, moderately soluble in toluene, and insoluble in hexanes

Molecule: CCCCC/C=C\C/C=C\C/C=C\C/C=C\CCCC(=O)O.CCCCC/C=C\C/C=C\C/C=C\C/C=C\CCCC(=O)O.CN(C)CCC[Si](C)(C)O[Si]1(O[Si](C)(C)CCCN(C)C)n2c3c4ccccc4c2N=C2N=C(N=c4c5ccccc5c(n41)=NC1=NC(=N3)c3ccccc31)c1ccccc12 [Pc 291, SiPc[OSi(CH3)2(CH2)3NH(CH3)2]2^2+ [OC(O)(CH2)2(CH2CH═CH)4(CH2)4CH3]2]
solubility (in words) [2]: soluble in ethanol, CH2Cl2 and dimethylformamide, moderately soluble in toluene, and insoluble in hexanes
decomp (%) ([3]; time 0 h): 0%
decomp (%) [3, 9]: 18%
decomp (%) [3, 10]: 19%
decomp (%) [3, 11]: 20%
decomp (%) [3, 12]: 20%

Molecule: CC/C=C\C/C=C\C/C=C\C/C=C\C/C=C\C/C=C\CCC(=O)O.CC/C=C\C/C=C\C/C=C\C/C=C\C/C=C\C/C=C\CCC(=O)O.CN(C)CCC[Si](C)(C)O[Si]1(O[Si](C)(C)CCCN(C)C)n2c3c4ccccc4c2N=C2N=C(N=c4c5ccccc5c(n41)=NC1=NC(=N3)c3ccccc31)c1ccccc12 [Pc 292, SiPc[OSi(CH3)2(CH2)3NH(CH3)2]2^2+ [OC(O)CH2(CH2CH═CH)6CH2CH3]2^−]
solubility (in words) [2]: soluble in ethanol, CH2Cl2 and dimethylformamide, moderately soluble in toluene, and insoluble in hexanes
decomp (%) ([3]; time 0 h): 0%
decomp (%) [3, 9]: 20%
decomp (%) [3, 10]: 21%
decomp (%) [3, 11]: 22%
decomp (%) [3, 12]: 22%

Molecule: CC1=C(/C=C/C(C)=C/C=C/C(C)=C/C(=O)O)C(C)(C)CCC1.CC1=C(/C=C/C(C)=C/C=C/C(C)=C/C(=O)O)C(C)(C)CCC1.CN(C)CCC[Si](C)(C)O[Si]1(O[Si](C)(C)CCCN(C)C)n2c3c4ccccc4c2N=C2N=C(N=c4c5ccccc5c(n41)=NC1=NC(=N3)c3ccccc31)c1ccccc12 [Pc 293, SiPc[OSi(CH3)2(CH2)3NH(CH3)2]2^2+ [OC(O)(CH═C(CH3)CH═CH)2C6H6(CH3)3]2]
solubility (in words) [2]: soluble in ethanol, CH2Cl2 and dimethylformamide, moderately soluble in toluene, and insoluble in hexanes

Molecule: CCCCCCCC/C=C\CCCCCCCC(=O)O[Si]1(OC(=O)CCCCCCC/C=C\CCCCCCCC)n2c3c4ccccc4c2N=C2N=C(N=c4c5ccccc5c(n41)=NC1=NC(=N3)c3ccccc31)c1ccccc12 [Pc 295, SiPc[OC(O)(CH2)7CH═CH(CH2)7CH3]2]
solubility (in words) [2]: soluble in CH2Cl2, dimethylformamide, pyridine and toluene, slightly soluble in hexanes, and insoluble in methanol
decomp (%) ([3]; time 0 h): 0%
decomp (%) [3, 9]: 2%
decomp (%) [3, 10]: 3%
decomp (%) [3, 11]: 3%
decomp (%) [3, 12]: 4%

effectiveness of alkene in decreasing photostability of Pc 4 (in words) [1]: most effective
decomp (%) of Pc 4 [1, 13]: 0%
decomp (%) of Pc 4 [1, 4]: 0%
decomp (%) of Pc 4 [1, 14]: 13%
decomp (%) of Pc 4 [1, 5]: 79%
decomp (%) of Pc 4 [1, 15]: 20%
decomp (%) of Pc 4 [1, 6]: 93%
decomp (%) of Pc 4 [1, 16]: 38%
decomp (%) of Pc 4 [1, 7]: 99%
decomp (%) of Pc 4 [1, 17]: 50%
decomp (%) of Pc 4 [1, 8]: 99%
Molecule: CC(C)=CCC/C(C)=C/CC/C(C)=C/CO [farnesol]

effectiveness of alkene in decreasing photostability of Pc 4 (in words) [1]: most effective
decomp (%) of Pc 4 [1, 13]: 0%
decomp (%) of Pc 4 [1, 4]: 0%
decomp (%) of Pc 4 [1, 14]: 10%
decomp (%) of Pc 4 [1, 5]: 87%
decomp (%) of Pc 4 [1, 15]: 14%
decomp (%) of Pc 4 [1, 6]: 98%
decomp (%) of Pc 4 [1, 16]: 21%
decomp (%) of Pc 4 [1, 7]: 99%
decomp (%) of Pc 4 [1, 17]: 30%
decomp (%) of Pc 4 [1, 8]: 99%
Molecule: CC(C)=CCC/C(C)=C/CO [geraniol]

decomp (%) of Pc 4 [1, 4]: 0%
decomp (%) of Pc 4 [1, 5]: 40%
decomp (%) of Pc 4 [1, 6]: 72%
decomp (%) of Pc 4 [1, 7]: 89%
decomp (%) of Pc 4 [1, 8]: 99%
Molecule: CCCCC/C=C\C/C=C\CCCCCCCC(=O)O [linoleic acid]

decomp (%) of Pc 4 [1, 13]: 0%
decomp (%) of Pc 4 [1, 4]: 0%
decomp (%) of Pc 4 [1, 14]: 50%
decomp (%) of Pc 4 [1, 5]: 57%
decomp (%) of Pc 4 [1, 15]: 75%
decomp (%) of Pc 4 [1, 6]: 81%
decomp (%) of Pc 4 [1, 16]: 87%
decomp (%) of Pc 4 [1, 7]: 92%
decomp (%) of Pc 4 [1, 17]: 94%
decomp (%) of Pc 4 [1, 8]: 96%
Molecule: CC(C)=CCC/C(C)=C/CC/C(C)=C/CC/C=C(\C)CC/C=C(\C)CCC=C(C)C [squalene]

Molecule: CoPc[2,3-O(C2H4CH(CH3)CH2)2C2H4CH(CH3)2]2 [Pc 273]
solubility (in words) [2]: slightly soluble in CH2Cl2, dimethylformamide, toluene, and hexanes

Molecule: HOSiPcOSi(CH3)2(CH2)3N(C2H5)2 [Pc 34]
solubility (in words) [2]: soluble in CH2Cl2, dimethylformamide, and toluene, and insoluble in hexanes

Molecule: NiPc[2,3-O(C2H4CH(CH3)CH2)2C2H4CH(CH3)2]2 [Pc 274]
solubility (in words) [2]: slightly soluble in CH2Cl2, dimethylformamide, toluene, and hexanes

Molecule: SiNc[OSi(CH3)2(CH2)3N(CH3)2]2 [Compound 41]
solubility (in words) [2]: soluble in CH2Cl2, dimethylformamide, and toluene, and insoluble in hexanes

Molecule: ZnPc[2,3-O(C2H4CH(CH3)CH2)2C2H4CH(CH3)2]2 [Pc 275]
solubility (in words) [2]: slightly soluble in CH2Cl2, dimethylformamide, toluene, and hexanes
